Measured values as given in US10597542B2, “Methods of applying active components” (HONEYWELL INTERNATIONAL INC., priority 2011, dated 2020).

Experiment: Solubility of material samples covered with tr-1233zd or cis-1233zd in vials (Examples 8-13)
Conditions: for Amount of heparin dissolved: remained clear overnight
Text: (§1) Test samples of commercial acrylic plastic sheet cut into ¼″×2″ piece were placed into 20 cc vials with septum screw cap. Solvents (tr-1233zd & cis-1233zd) were slowly added by a syringe to cover the entire plastic sample inside the vial. The purpose was to observe if any degradation happens to the plastic.
as §1, with “high impact styrene” for “acrylic”
Test samples of commercial acrylonitrile-butadiene-styrene (ABS) sheet cut into ¼″×2″ piece were placed into 20 cc vials with septum screw cap. Solvents (tr-1233zd & cis-1233zd) were slowly added by a syringe to cover the entire plastic sample inside the vial.
The experiment in Example 8 is repeated with commercial polycarbonate material.
The experiment of Example 8 was repeated with commercial Dow Polaroid™ Au-608-B acrylic material. This material is used in various coatings.
The experiment of Example 8 was repeated with blood anti-coagulant material Heparin, which is used as a coating in medical devices.

- Amount of heparin dissolved (cis-1233zd with 2 wt % methanol): 1.19 wt %
- Amount of heparin dissolved (tr-1233zd with 2 wt % methanol): 0.794 wt %
Substance: Heparin
- Solubility / effect of solvent on the material: None of the solvents could dissolve the material
